Experimental data taken from patent US7875629B2, “Quinolinone compounds as 5-HT4 receptor agonists” (Theravance, Inc., priority 2005, dated 2011).

Tests used:
[1] = target: T1, hERG cardiac potassium channel (Homo sapiens, UniProt Q12809); assay: in vitro; format: cell-based; conditions: pH 7.4
T1 construct: host or cells: CHO-K1 cells stably transfected with HERG cDNA
Description: In Vitro Voltage Clamp Assay of Inhibition of Potassium Ion Current in Whole Cells Expressing the hERG Cardiac Potassium Channel
CHO-K^1 cells stably transfected with HERG cDNA were obtained from Gail Robertson at the University of Wisconsin. Cells were held in cryogenic storage until needed. Cells were expanded and passaged in Dulbecco's Modified Eagles Medium/F12 supplemented with 10% fetal bovine serum and 200 μg/mL geneticin. Cells were seeded onto poly-D-lysine (100 μg/mL) coated glass coverslips, in 35 mm^2 dishes (containing 2 mL medium) at a density that enabled isolated cells to be selected for whole cell voltage-clamp studies. The dishes were maintained in a humidified, 5% CO2 environment at 37° C.
Extracellular solution was prepared at least every 7 days and stored at 4° C. when not in use. […]
The coverslips on which the cells were seeded were transferred to a recording chamber and perfused continuously. […] Peak current amplitudes during the repolarization phase were determined using pClamp software. […]
Peak current amplitudes during the repolarization phase were determined using pCLAMP software. […] The normalized current means and standard errors for each condition were calculated and plotted versus the time course of the experiment. […]

[2] = in vivo; conditions: male, Sprague-Dawley, rat
Description: Pharmacokinetic Study in the Rat
Male Sprague-Dawley rats (CD strain, Charles River Laboratories, Wilmington, Mass.) were dosed with test compounds via intravenous administration (IV) at a dose of 2.5 mg/kg or by oral gavage (PO) at a dose of 5 mg/kg. The dosing volume was 1 mL/kg for IV and 2 mL/kg for PO administration. Serial blood samples were collected from animals pre-dose, and at 2 (IV only), 5, 15, and 30 min, and at 1, 2, 4, 8, and 24 hours post-dose.
Standard pharmacokinetic parameters were assessed by non-compartmental analysis (Model 201 for IV and Model 200 for PO) using WinNonlin (Version 4.0.1, Pharsight, Mountain View, Calif.). The maximum in the curve of test compound concentration in blood plasma vs. time is denoted Cmax. The area under the concentration vs. time curve from the time of dosing to the last measurable concentration (AUC(0-t)) was calculated by the linear trapezoidal rule. Oral bioavailability (F(%)), i.e. the dose-normalized ratio of AUC(0-t) for PO administration to AUC(0-t) for IV administration, was calculated as: F(%)=AUCPO/AUCIV×DoseIV/DosePO×100%

T1 sequence (Q12809 whole entry): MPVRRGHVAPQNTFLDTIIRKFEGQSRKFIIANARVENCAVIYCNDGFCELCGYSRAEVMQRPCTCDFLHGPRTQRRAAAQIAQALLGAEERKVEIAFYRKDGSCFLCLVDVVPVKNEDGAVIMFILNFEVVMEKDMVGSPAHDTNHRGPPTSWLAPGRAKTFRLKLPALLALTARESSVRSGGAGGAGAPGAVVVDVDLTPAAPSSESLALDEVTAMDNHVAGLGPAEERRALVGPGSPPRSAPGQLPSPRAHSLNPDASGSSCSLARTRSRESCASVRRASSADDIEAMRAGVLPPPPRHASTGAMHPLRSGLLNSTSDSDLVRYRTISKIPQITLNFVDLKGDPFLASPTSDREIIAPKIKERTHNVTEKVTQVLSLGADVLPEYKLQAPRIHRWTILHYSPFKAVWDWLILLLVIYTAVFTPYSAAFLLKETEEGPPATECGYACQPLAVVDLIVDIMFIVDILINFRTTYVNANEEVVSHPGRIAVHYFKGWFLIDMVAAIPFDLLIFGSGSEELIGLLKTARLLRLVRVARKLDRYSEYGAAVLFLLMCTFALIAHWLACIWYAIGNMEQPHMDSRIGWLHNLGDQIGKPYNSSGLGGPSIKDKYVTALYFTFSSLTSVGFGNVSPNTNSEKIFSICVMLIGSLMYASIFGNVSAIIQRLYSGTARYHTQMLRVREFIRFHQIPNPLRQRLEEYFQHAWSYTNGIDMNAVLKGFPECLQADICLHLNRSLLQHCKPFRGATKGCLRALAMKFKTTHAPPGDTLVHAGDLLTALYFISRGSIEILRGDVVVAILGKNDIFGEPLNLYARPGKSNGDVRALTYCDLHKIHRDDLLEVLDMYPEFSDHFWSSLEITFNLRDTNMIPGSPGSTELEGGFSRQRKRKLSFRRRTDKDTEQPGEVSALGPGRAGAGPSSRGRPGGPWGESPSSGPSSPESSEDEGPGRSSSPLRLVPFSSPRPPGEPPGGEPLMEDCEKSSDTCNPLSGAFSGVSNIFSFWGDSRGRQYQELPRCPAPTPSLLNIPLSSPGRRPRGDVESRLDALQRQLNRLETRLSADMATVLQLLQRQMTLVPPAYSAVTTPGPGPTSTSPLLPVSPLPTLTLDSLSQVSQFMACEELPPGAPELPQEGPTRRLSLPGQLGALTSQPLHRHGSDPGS

CC(C)n1c(=O)c(C(=O)NC2CC3CCC(C2)N3CCCS(=O)(=O)N2CCN(C)CC2)cc2ccccc21 [Example 17, 1-isopropyl-2-oxo-1,2-dihydroquinoline-3-carboxylic acid {(1S,3R,5R)-8-[3-(4-methylpiperazine-1-sulfonyl)propyl]-8-azabicyclo[3.2.1]oct-3-yl}amide]
inhibition at 5 min, 3 µM [1]: < 15% | bioavailability [2]: ~20% | AUC(0-t) ([2]; po, 5 mg/kg): 450 ng·h/mL | Cmax ([2]; po, 5 mg/kg): 60 ng/mL
